From publication PMC9059851 (RSC Advances, 2019) come the findings set out here.

This data set is described as follows: Zeta potential measurement. Type of data set: physicochemical. Particulars: NanoZS, solutions in pH 7.4 phosphate buffer.

In the case of `C[C@]12CC[C@H](O)C[C@H]1CC[C@@H]1[C@@H]2CC[C@]2(C)[C@@H](c3ccc(=O)oc3)CC[C@]12O` [bufalin], the zeta potential is recorded as −0.55 mV.
